Experiments:
Assay type in all cases: cell-based, human
[1] = system: kinome (kinase binding to MIBs) of SUM159 cells; test: MIB/MS kinome profiling of inhibitor-treated SUM159 cells
Excerpt: Multiplexed inhibitor bead affinity chromatography: Cells and tumors were lysed and harvested as previously described (Oppermann et al., 2009). Oppermann et al., 2009 Mol Cell Proteo 8 1751-1764. Briefly, lysates were brought to 1 M NaCl and passed through columns of washed inhibitor-conjugated beads (bisindoylmaleimide-X, SB203580, lapatinib, dasatinib, purvalanol B, VI16832, PP58) to isolate protein kinases from the lysates (see Supplemental Experimental Procedures for MIBs preparation). Kinase-bound inhibitor beads were washed with high-salt buffer and 0.1% SDS before elution in 0.5% SDS solution in high heat. Proteins were purified using chloroform/methanol extraction, resuspended in 50 mM ammonium bicarbonate (pH 8.0) or 50 mM HEPES (pH 8.0) for SILAC or iTRAQ respectfully. Samples were digested overnight at 37° C. with sequencing grade modified trypsin (Promega). iTRAQ labeling of digested peptides was carried out using iTRAQ 4-plex reagent (AB SCIEX) for 2 hrs at room temperature in the dark. Peptides were dried down, separated using Strong Cation Exchange Spin Columns, Mini and isolated with PepClean C-18 Spin Columns (Thermo Scientific).
LC-MS/MS analysis: MS and MS/MS data were acquired using a MALDI TOF/TOF 5800 (AB SCIEX). Peptides were analyzed using ProteinPilot Software Version 3.0 (AB SCIEX) and identification using UniProtKB/Swiss-Prot database (release Oct. 15, 2009). Proteins were only accepted when at least 1 unique peptide was identified at 99% confidence. ProteinPilot software 3.0 identified and quantified changes in kinase binding to MIBs utilizing the Pro Group Algorithm. […] For each protein ratio reported, a p-value is computed based on Student's t-distribution under the null hypothesis that the protein ratio is 1. MIB/MS analysis with cell lines was done in 2-3 independent experiments. A set of three independent experiments using SILAC labeled SUM159 cells treated with AZD6244 or DMSO was used to assess statistical significance and reproducibility of MIBs/MS to profile kinome response (Supplementary Methods).
Cells were lysed on ice for 20 minutes in lysis buffer containing 50 mM HEPES (pH 7.5), 0.5% Triton X-100, 150 mM NaCl, 1 mM EDTA, 1 mM EGTA, 10 mM sodium fluoride, 2.5 mM sodium orthovanadate, 50 ng/mL calyculin A, 1× protease inhibitor cocktail (Roche), and 1% each of phosphatase inhibitor cocktails 2 and 3 (Sigma). Cell lysate was sonicated (3×10 s) on ice and centrifuged for 15 minutes (13,000 rpm) at 4° C. and the supernatant was collected and syringe-filtered through a […] SFCA membrane. The filtered lysate (approximately 40 mg or protein per experiment) was brought to 1 M NaCl and pre-cleared by flowing over 500 μL of blocked and washed NHS-activated Sepharose 4 Fast Flow beads (GE Healthcare). The flow-through was collected and passed through a column of layered inhibitor-conjugated beads (Bisindoylmaleimide-X (50 μL), SB203580 (50 Lapatinib (100 μL), Dasatinib (100 μL), Purvalanol B (100 μL), VI16832 (100 μL), PP58 (100 4)) to isolate protein kinases from the lysates. Kinase-bound inhibitor beads were washed with 20 mL of high-salt buffer and 10 mL of low-salt buffer, each containing 50 mM HEPES (pH 7.5), 0.5% Triton X-100, 1 mM EDTA, 1 mM EGTA, and 10 mM sodium fluoride, and 1 M NaCl or 150 mM NaCl, respectively. A final wash of 1 mL 0.1% SDS was applied to the columns before elution in 1 mL of a 0.5% SDS solution in high heat. Elutions from all columns were combined and cysteines were alkylated by sequential incubations with DTT (final concentration 5 mM) for 20 minutes at 60° C. and iodoacetamide (final concentration 20 mM) for 30 minutes at room temperature in the dark. The elution was spin-concentrated to 100 μL and detergents were removed by a chloroform/methanol extraction. […]

ERK1/2 [2] = test: ERK activity in SUM159-R cells (western blot)
Method: (§1) Detailed methods and antibodies are provided in Supplemental Experimental Procedures.
(§2) Generation of AZD6244 resistant SUM159 cells: SUM159 cells were cultured in DMEM/F12 supplemented with 10% FBS media containing 5 μM AZD6244. Media was changed every 2 days, maintaining inhibitor concentrations of 5 μM AZD6244.
(§3) Western blotting: Proteins from cell lysates were separated by SDS-PAGE chromatography, transferred to nitrocellulose membranes, and probed with the indicated primary antibodies. Antibodies recognizing pAKT (S473), pAKT (T308), AURA, pAXL (Y702), AXL, c-Myc, DDR1, EGFR, pERK1/2 (T202/Y204), pHER3 (Y1197), MAX, pMEK1/2 (S217/S221), MEK1/2, MKP3, pP70S6K (T389), pPDGFRβ (Y751), pPDGFRβ (Y1009), pPDGFR (Y857), PDGFRβ, pRAF (S338), pRSK1 (T359/S363), pVEGFR2 (Y1175), VEGFR2 were obtained from Cell Signaling Technology. Antibodies for Cyclin A2, Cyclin B1, Cyclin D1, ERK2, RAF, and pRAF (S259) were obtained from Santa Cruz Biotechnology. The antibody recognizing Bim was obtained from Chemicon. The antibody recognizing p-c-Myc (S62) was obtained from Abeam. Secondary HRP-anti-rabbit and HRP-anti-goat secondary antibodies were from Jackson Immunoresearch Laboratories and Santa Cruz Biotechnology, respectively. Western blots were visualized by incubation with SuperSignal West Pico Chemiluminescent Substrate (Thermo Scientific).

SUM159-R cells = test: Growth of AZD6244-resistant SUM159-R cells; conditions: 25 μM AZD6244
Method: Cell Culture: MDA-MB-231 cells were grown in DMEM/F12 supplemented with 10% FBS. SUM-159 cells were grown in DMEM/F12 supplemented with 10% FBS 1 μg/mL hydrocortisone, and 5 μg/mL insulin. SUM159-R cells were continually grown in the presence of 5 μM AZD6244. For SILAC labeling, cells were grown for five doublings in arginine- and lysine-depleted media (as above) supplemented with either unlabeled L-arginine (42 mg/L) and L-lysine (71 mg/L) or equimolar amounts of heavy isotope labeled [13C6,15N4]arginine (Arg10) and [13C6]lysine (Lys6) (Cambridge Isotope Laboratories). Proliferation was quantified using Cell-Titer Glo Luminescent Cell Viability Assay (Promega). Fresh media containing DMSO or kinase inhibitors was added daily and experiments were performed in triplicate.
as §2

ERK1/2 [3] = test: Western blot of MEK/ERK signaling in SUM159 cells; conditions: 15 min-4 h, SUM159 and MDA-MB-231 cells
Excerpt: as §1, §3

[4] = 5 μM AZD6244, SILAC, TiO2 enrichment of MIB elutions

SMILES: Cn1cnc2c(F)c(Nc3ccc(Br)cc3Cl)c(C(=O)NOCCO)cc21 [AZD6244]
- peptides of MIB isolated kinases with decreased phosphorylation [1, 4]: 52 peptides
- peptides of MIB isolated kinases with increased phosphorylation [1, 4]: 59 peptides
- phosphopeptides of MIB isolated kinases with unchanged phosphorylation status [1, 4]: 365 phosphopeptides
- number of kinases with time-dependent MIB binding changes ([1]; 4, 12 and 24 h exposure to AZD6244): more than 140 kinases
- MEK1 binding to MIBs ([1]; 12-24 h, 5 μM AZD6244): remains largely inhibited
- MEK1 and MEK2, measured by loss of MIB binding ([1]; 4 h, 5 μM AZD6244): inhibited
- MEK2 binding to MIBs, AZD6244/DMSO ratio ([1]; 24 h, 5 μM AZD6244): 1
- of the 40 highest expressed kinase transcripts of a patient claudin-low tumor, kinases dynamically regulated in binding to MIBs ([1]; SUM159 and/or MDA-MB-231 cells in response to AZD6244): 14 (24%)
- ERK activation in SUM159-R cells (ERK1/2 [2]; 25 μM AZD6244): inhibited ERK activation
- ERK activity in SUM159-R cells (ERK1/2 [2]; 50 μM AZD6244): can be inhibited
- growth of SUM159-R cells (SUM159-R cells): growth arrested
- MEK and ERK, early response (ERK1/2 [3]): rapidly inhibited

From US20140243239A1, “MULTIPLEXED KINASE INHIBITOR BEADS AND USES THEREOF” (University of North Carolina at Chapel Hill, priority 2011, published 2014)
